Measured values reported in US20230023092A1, “TREATMENT OF DEPRESSION AND OTHER VARIOUS DISORDERS WITH PSILOCYBIN” (COMPASS […], priority 2019, published 2023).

What was measured:
[1] = post-ingestion; cited from earlier work
subjects = conditions: 20 mg escitalopram; cited from earlier work
Wistar-Kyoto (WKY) rats = test: Sleep-wake scoring (EEG/EMG: wake, NREM, REM) in rat model of TRD; type: in vivo; conditions: 5 and 10 mg/kg, s.c.
Excerpt: Since WKY rats show decreased sensitivity to conventional monoamine-based antidepressant treatment, they are used as a model of TRD.
Male (WKY) rats (200-250 g) were implanted with electroencephalography (EEG) and electromyography (EMG) electrodes and telemetry transmitters under general anesthesia (2-5% isoflurane in Oxygen). A telemetry transmitter (HD-502, Data Sciences International) was placed in the peritoneal cavity, and the wires of the transmitter were passed through the muscle wall and then sub-dermally to the scalp to act as EEG/EMG electrodes. Two bore holes were made in the skull (Fronto-parietal coordinates; Bregma +2 mm anterior, midline +1.0 mm lateral and Lambda 0 mm, +1.5 mm lateral). The positive EEG electrode was attached to the anterior bore hole and the negative EEG electrode to the posterior bore hole. Both electrodes were secured in place using a suitable adhesive agent (Cyanoacrylate gel, RS components). […]
Animals were maintained on a 12/12 hour light dark cycle. On study days, the animals were placed in recording boxes and EEG/EMG, locomotor activity, as well as body temperature were recorded for 0.5 hours before and 24 hours after each dosing. […]
The subsequent EEG/EMG recordings were automatically scored as wake, non-REM (NREM) sleep, or REM sleep in 10 second epochs using SleepSign (Kissei Comtec, Japan). […]

Row | SMILES | Time to peak plasma concentration [1] [h] | Frequency of common side effects: agitation or restlessness; diarrhea; difficulty sleeping; drowsiness; dry mouth; headache; nausea; sexual difficulties; dizziness; sweating (subjects) | Amount of REM sleep (Wistar-Kyoto (WKY) rats)
1 | CN(C)CCC[C@@]1(c2ccc(F)cc2)OCc2cc(C#N)ccc21 [escitalopram] | 3 to 4 | Common (~10% at 20 mg escitalopram) | 
2 | CNC1(c2ccccc2Cl)CCCCC1=O (stereo not drawn) [ketamine] |  |  | decreased the amount of REM sleep in a dose-dependent manner
